Measured values as given in patent publication US20250368640A1 (BIOFRONT LTD, priority 2022, published 2025).

What was measured:
[1] = biological target: T1, HPK1 (Homo sapiens (Human), UniProt Q92918); assay: HPK1 enzyme inhibition assay (ADP-Glo); format: biochemical
Method: HPK1 Enzyme Inhibition Assay
The compound was dissolved in 100% DMSO at the concentration of 10 mM. The HPK1 protein was purchased from Signal Chem (M23-11G-10). 2.5 μL per well of 2×HPK1 protein was added to assay plate containing the test compound, centrifuged at 1500 rpm for 1 minute, and then incubated at 25° C. for 60 minutes. MBP protein was purchased from Signal Chem (M42-51N) and ATP was purchased from Promega (V9102). The two were added 2.5 μL per well mixture of 2×MBP (0.2 ug/ul) and ATP (20 μM), centrifuged at 1500 rpm for 1 minute, then incubated at 25° C. for 60 minutes. Then added 5 μL of ADP-Glo from Promega (V9102) to the assay plate and depleted the unconsumed ATP for 60 minutes. Then centrifuged at 1500 rpm for 1 minute and incubated at 25° C. for 60 minutes. Finally, 10 μL of the kinase assay reagent from Promega (V9102) was added to the assay plate to convert ADP to ATP, centrifuged at 1500 rpm for 1 minute, incubate at 25° C. for 40 minutes. After 40 minutes incubation, the […] was determined. Based on the results, the IC50 value of the compound was calculated.
Target sequence in this assay (Q92918 1-346 limits assumed): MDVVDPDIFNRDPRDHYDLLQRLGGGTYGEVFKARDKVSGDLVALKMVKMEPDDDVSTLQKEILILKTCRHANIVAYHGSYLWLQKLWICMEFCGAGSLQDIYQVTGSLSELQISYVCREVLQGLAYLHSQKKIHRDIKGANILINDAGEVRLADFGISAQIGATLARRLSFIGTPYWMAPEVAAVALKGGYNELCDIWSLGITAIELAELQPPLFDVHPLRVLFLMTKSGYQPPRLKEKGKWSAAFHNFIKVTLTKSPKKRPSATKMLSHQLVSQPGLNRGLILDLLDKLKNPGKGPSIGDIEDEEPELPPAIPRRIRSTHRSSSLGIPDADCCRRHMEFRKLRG

[2] = biological target: FLT3-ITD (Homo sapiens, UniProt P36888); assay: FLT3-ITD enzyme inhibition assay; format: biochemical; conditions: enzyme inhibition
Method: FLT3-ITD Enzyme Inhibition Assay
The compound was dissolved in 100% DMSO at the concentration of 10 mM. The FLT3-ITD protein was purchased from Invitrogen (PV6191). 10 μL per well of 2.5×FLT3-ITD protein was added to assay plate containing the test compound, centrifuged at 1000 rpm for 1 minute, and then incubated at 25° C. for 10 minutes. Peptide 2 was purchased from GL Biochem (112394) and ATP was purchased from Promega (V9102). The two were added 15 μL per well mixture of 1.67× peptide 2 (final conc. is 3 μM) and ATP (final conc. is 97.2 μM), centrifuged at 1000 rpm for 1 minute, then incubated at 25° C. for 40 minutes. Then added 30 μL of stop buffer (100 mM HEPES pH7.5, 0.015% Brij-35, 0.2% Coating Reagent 3, 50 mM EDTA) to the assay plate and centrifuged at 1000 rpm for 1 minute. the product was determined. Based on the results, the IC50 value of the compound was calculated.

[3] = biological target: T2, Aurora A (Homo sapiens (Human), UniProt O14965); assay: Aurora A enzyme inhibition assay; format: biochemical
Method: Aurora A Enzyme Inhibition Assay
The compound was dissolved in 100% DMSO at the concentration of 10 mM. The Aurora A protein was purchased from Carna (05-101). 10 μL per well of 2.5×Aurora A protein was added to assay plate containing the test compound, centrifuged at 1000 rpm for 1 minute, and then incubated at 25° C. for 10 minutes. Peptide 21 was purchased from GL Biochem (116370) and ATP was purchased from Promega (V9102). The two were added 15 μL per well mixture of 1.67× peptide 21 (final conc. is 3 μM) and ATP (final conc. is 14.58 μM), centrifuged at 1000 rpm for 1 minute, then incubated at 25° C. for 40 minutes. Then added 30 μL of stop buffer (100 mM HEPES pH7.5, 0.015% Brij-35, 0.2% Coating Reagent 3, 50 mM EDTA) to the assay plate and centrifuged at 1000 rpm for 1 minute. the product was determined. Based on the results, the IC50 value of the compound was calculated.

[4] = biological target: T1, HPK1; assay: HPK1 degradation assay (western blot, human PBMC); format: cell-based; conditions: protein degradation, human PBMC
Method: Frozen human PBMC were purchased from Shanghai OribioTech and recovered with culture medium (RMPI1640) prior to use. The cells were then incubated with a variety of concentrations of compound. After incubation, the cells were collected and lysed. The protein concentration was determined by BCA protein assay kit from Thermo (23227). The HPK1 protein level was determined by western blots, using anti-human HPK1 polyclonal antibody from CST (4472S). Proteins were loaded into each well of the pre-casting gels and subjected to electrophoretic separation by SDS-PAGE. The protein resolved by SDS-PAGE were transferred to PVDF, blocked by 5% skim milk, and probed with anti-human HPK1 antibody or β-actin antibody from CST (3700S), using standard western blotting procedure.
Target sequence in this assay (Q92918 whole entry): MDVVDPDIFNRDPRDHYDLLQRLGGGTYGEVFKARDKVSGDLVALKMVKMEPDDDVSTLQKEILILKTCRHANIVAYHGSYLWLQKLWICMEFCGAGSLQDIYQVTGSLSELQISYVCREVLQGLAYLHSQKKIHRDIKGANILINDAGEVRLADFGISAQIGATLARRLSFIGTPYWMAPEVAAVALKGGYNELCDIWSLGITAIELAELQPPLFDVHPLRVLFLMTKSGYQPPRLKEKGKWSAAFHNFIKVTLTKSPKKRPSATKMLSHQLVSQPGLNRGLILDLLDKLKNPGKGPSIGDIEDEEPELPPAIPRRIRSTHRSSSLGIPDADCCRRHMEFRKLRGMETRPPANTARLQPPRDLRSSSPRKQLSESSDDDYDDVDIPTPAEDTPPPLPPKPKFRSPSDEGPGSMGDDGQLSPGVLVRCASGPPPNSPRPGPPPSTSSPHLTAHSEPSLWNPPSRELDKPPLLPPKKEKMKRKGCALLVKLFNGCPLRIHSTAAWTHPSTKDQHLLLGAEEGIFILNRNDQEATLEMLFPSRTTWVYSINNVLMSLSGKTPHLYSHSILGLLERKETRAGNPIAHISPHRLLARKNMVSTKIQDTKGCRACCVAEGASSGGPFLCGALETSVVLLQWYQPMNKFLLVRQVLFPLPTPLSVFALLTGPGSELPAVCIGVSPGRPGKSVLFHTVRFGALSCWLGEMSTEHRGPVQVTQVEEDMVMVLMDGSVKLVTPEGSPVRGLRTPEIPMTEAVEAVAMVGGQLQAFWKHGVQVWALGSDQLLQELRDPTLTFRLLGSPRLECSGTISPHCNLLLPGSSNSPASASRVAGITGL

[5] = test system: FLT3; assay: FLT3 degradation assay (western blot, MV-411 cells); format: cell-based, human; conditions: protein degradation, class symbol, read-out: FLT3 DC50 (nM)/Dmax (%)
Method: (§1) MV-411 cells were cultured with medium (IMDM) prior to use. Cells were then incubated with a variety of concentrations of compound. After incubation, the cells were collected and lysed. The protein concentration was determined by BCA protein assay kit from Thermo (23227). The FLT3 protein level was determined by western blots, using anti-human FLT3 monoclonal antibody from CST (3462S). Proteins were loaded into each well of the pre-casting gels and subjected to electrophoretic separation by SDS-PAGE. The protein resolved by SDS-PAGE were transferred to PVDF, blocked by 5% skim milk, and probed with anti-human FLT3 antibody or -actin antibody from CST (3700S), using standard western blotting procedure.

[6] = biological target: T2, Aurora A; assay: Aurora A degradation assay (western blot); format: cell-based; conditions: protein degradation, IMR32, Huh7 or HL-60 cells
Method: Aurora A Degradation Assay
as §1, with “IMR32” for “MV-411”, “cultured with medium (MEM), Huh7 cells were cultured with medium (DMEM) and HL-60 cells were culture” for “cultured”, “AURKA” for “FLT3”, “(14475S).” for “(3462S).”, “β-actin” for “-actin”, “(3700S) or COX IV antibody from CST (4850S),” for “(3700S),”

[7] = test system: MEK 1/2; assay: MEK 1/2 degradation assay (western blot); format: cell-based, human; conditions: protein degradation, MV-411 or IMR32 cells
Method: MEK 1/2 Degradation Assay
as §1, with “(IMDM) and IMR32 cells were cultured with medium (MEM)” for “(IMDM)”, “anti-human MEK 1/2 polyclonal” for “anti-human FLT3 monoclonal”, “CST (9122S).” for “CST (3462S).”, “anti-human MEK1/2” for “anti-human FLT3”, “or β-actin” for “or -actin”, “CST (3700S) and COX IV antibody from CST (4850S),” for “CST (3700S),”

T2 sequence (O14965 whole entry): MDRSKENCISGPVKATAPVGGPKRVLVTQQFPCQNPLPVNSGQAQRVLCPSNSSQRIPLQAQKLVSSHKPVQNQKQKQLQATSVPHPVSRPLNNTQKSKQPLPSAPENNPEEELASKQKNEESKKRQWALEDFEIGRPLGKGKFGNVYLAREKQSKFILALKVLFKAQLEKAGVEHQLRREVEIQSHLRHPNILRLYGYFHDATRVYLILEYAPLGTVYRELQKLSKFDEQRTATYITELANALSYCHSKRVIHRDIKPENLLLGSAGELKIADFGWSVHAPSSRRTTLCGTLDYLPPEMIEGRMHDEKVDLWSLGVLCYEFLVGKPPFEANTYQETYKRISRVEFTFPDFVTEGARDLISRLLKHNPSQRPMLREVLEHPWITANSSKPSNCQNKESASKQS
FLT3-ITD, sequence (P36888 whole entry, looked up, change not shown): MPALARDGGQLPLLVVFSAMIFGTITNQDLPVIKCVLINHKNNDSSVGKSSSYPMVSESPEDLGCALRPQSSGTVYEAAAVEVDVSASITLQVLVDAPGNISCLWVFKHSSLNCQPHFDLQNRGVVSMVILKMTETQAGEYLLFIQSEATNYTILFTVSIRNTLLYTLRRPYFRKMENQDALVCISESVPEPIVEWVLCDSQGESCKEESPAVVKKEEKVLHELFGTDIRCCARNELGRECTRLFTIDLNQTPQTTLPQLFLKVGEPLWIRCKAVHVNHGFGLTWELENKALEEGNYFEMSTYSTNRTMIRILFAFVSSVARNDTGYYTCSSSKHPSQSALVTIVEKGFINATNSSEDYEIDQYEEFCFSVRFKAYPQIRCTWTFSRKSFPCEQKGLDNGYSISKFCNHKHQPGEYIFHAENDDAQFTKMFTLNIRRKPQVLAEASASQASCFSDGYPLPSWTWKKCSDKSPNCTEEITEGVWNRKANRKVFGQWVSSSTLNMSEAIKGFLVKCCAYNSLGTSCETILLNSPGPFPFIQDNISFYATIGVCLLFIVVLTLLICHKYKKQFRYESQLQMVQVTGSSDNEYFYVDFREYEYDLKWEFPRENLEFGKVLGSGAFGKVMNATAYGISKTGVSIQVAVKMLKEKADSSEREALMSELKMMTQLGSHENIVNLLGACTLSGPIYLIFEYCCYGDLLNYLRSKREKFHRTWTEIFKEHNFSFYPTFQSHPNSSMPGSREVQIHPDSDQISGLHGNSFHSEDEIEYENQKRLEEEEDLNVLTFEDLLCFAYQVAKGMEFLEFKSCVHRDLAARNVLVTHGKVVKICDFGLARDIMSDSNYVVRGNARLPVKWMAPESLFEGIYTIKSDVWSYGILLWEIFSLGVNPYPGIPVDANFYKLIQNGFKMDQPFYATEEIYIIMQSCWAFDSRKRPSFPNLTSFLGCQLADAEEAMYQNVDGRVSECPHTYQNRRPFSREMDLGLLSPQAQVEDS

**Q.** What does the source list for `CCc1c[nH]c2ncc(-c3cccc(N4CCCN(CCN5CCN(c6cc7c(cc6F)C(=O)N(C6CCC(=O)NC6=O)C7)CC5)C4=O)c3)c(Cl)c12` (stereo not shown) [Example 7, 3-(5-(4-(2-(3-(3-(4-chloro-3-ethyl-1H-pyrrolo [2,3-b]pyridin-5-yl)phenyl)-2-oxotetrahydropyrimidin-1 (2H)-yl)ethyl)piperazin-1-yl)-6-fluoro-1-oxoisoindolin-2-yl) piperidine-2,6-dione]?
**A.** IC50 [1]: 10.5 nM; IC50 [2]: 12.3 nM; IC50 [3]: 10.6 nM; HPK1 Dmax [4]: 60%; DC50 ([4]; read-out: HPK1 DC50): 12 nM; DC50 [5]: > 10000 nM; Aurora A Dmax [6]: 50%; DC50 ([6]; read-out: Aurora A DC50): 5 nM; MEK 1/2 Dmax [7]: 37%; DC50 ([7]; read-out: MEK 1/2 DC50): 264 nM
